The values below come from US8338420B1, “Treatment of Parkinson's disease and enhancement of dopamine signal using PDE 10 inhibitor” (Mitsubishi Tanabe Pharma Corporation, priority 2002, dated 2012).

One test addresses PDE1. Kind of test: PDE assay, PDE1 enzyme solution from rat ventricle. In kind it is biochemical, SD rat. The note with it: substrate about 12 nM [3H]-cGMP and 1 μM cGMP. On the procedure: Ventricle was excised from SD rat anesthetized with sodium pentobarbital (Nihon SLC, about 300 g), and washed with 100 ml of ice-cold saline 3 times. After the tissues were cut in approximately 1 g, it was frozen by liquid nitrogen, and stored at −80° C.
To about 5 g of this tissue sample was added 16 ml of an ice-cold homogenization buffer I, and the resultant mixture was homogenized by Polytron homogenizer for 3 minutes. The homogenate was centrifuged at 8000 rpm, at 4° C. for 20 minutes, and the obtained supernatant was further centrifuged by an ultracentrifuge at 50000 rpm, at 4° C. for 60 minutes. The resultant supernatant was stored at 4° C. […]
Subsequently, the eluted fractions were used as an enzyme solution for PDE assay. […] (final concentration of 1 mM) or calcium chloride (final concentration of 2 mM) and calmodulin (40 unit s/ml), and cGMP-hydrolyzing activity was measured.
For these PDE1 containing fractions, cGMP hydrolyzing activities were analyzed in the presence of E4021 (100 nM), PDE5 specific inhibitor, it was shown that the cGMP-hydrolyzing activities in these fractions were not inhibited by E4021. […]
Further, in the presence or absence of unlabeled cGMP, cAMP-PDE activities were measured for each of the fractions. […]
Still further, in the presence of rolipram (10 μm), the PDE4 specific inhibitor, cAMP hydrolyzing activities were measured for each of the fractions. […]

The target in the next test is T1, PDE11 (PDE11A) (Homo sapiens, UniProt Q9HCR9).
T1 construct: His tag (hexahistidine, pcDNA4/HisMax) (N); made in house
Kind of test: PDE assay, recombinant human PDE11A. It counts as biochemical. Conditions: substrate about 12 nM [3H]-cGMP and 1 μM cGMP. The source says:
Based on the information of cDNA sequence of human PDE7A (Genbank/EMBL Accession No. NM002603), a cDNA encoding human PDE7A was cloned by PCR method, according to a method described in Sasaki et al. (Sasaki et al., Biochem. Biophys. Res. Commun., vol. 271, pp. 575-583, 2000). Further, based on the information of cDNA sequence of human PDE8A (Genbank/EMBL Accession No. AF388183), a cDNA encoding human PDE8A was cloned by PCR method, according to a method described in Gamanuma et al. (Gamanuma et al., Cell Signal, 2003, vol. 15, pp. 565-574). Further, a cDNA encoding human PDE11A was obtained, according to a method reported in Yuasa et al. (Yuasa et al., J. Biol. Chem., vol. 275, pp. 31469-31479, 2000). Using these cDNAs, recombinant proteins of human PDE7A, human PDE8A, and human PDE11A were prepared as follows.
DNA fragments comprising a cDNA encoding human PDE7A, human PDE8A or human PDE11A were linked to pcDNA4/HisMax (available from Invitrogen), to give a vector plasmid for expression of human proteins, with a histidine tag peptide (hexahistidine), added to the N-terminus. COS-7 cells were transfected with these vector plasmids, and the cells were cultured in Dulbecco's modified Eagle medium containing 10% bovine fetal serum for about 24 hours. […]

T1 sequence (Q9HCR9 whole entry): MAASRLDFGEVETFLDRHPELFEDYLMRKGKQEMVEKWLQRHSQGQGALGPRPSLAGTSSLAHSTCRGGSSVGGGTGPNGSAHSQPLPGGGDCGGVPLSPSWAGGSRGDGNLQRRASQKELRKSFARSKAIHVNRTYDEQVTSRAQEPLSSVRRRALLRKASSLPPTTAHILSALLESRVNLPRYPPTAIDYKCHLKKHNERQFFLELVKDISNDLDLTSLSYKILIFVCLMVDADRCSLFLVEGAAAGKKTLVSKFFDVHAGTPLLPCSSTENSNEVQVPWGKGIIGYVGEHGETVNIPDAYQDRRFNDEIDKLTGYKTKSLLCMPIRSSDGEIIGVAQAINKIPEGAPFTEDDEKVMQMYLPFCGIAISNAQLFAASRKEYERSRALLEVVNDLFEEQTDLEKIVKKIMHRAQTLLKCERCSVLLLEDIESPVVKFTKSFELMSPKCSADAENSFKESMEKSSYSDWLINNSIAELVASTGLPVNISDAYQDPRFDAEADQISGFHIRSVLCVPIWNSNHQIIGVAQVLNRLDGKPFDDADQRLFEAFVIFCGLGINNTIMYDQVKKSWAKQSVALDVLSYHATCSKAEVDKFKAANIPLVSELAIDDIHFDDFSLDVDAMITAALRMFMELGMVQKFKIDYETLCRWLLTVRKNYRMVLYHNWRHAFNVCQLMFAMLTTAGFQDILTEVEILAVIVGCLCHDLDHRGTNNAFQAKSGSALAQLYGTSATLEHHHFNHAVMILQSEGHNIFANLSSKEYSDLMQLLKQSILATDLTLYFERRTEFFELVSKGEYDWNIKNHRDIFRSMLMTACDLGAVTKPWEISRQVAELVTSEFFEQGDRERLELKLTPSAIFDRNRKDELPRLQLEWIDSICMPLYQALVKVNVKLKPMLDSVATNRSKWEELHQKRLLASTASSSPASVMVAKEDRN

As for `COc1ccc(-c2cc(N3CCCC3)nc(/C=C/c3nc(-n4ccnc4)c4ccccc4n3)n2)cc1OC` [Compound A, 2-{(E)-2-[4-(1-imidazolyl)-quinazolin-2-yl]}ethenyl-4-(3,4-dimethoxy)phenyl-6-(pyrrolidin-1-yl)pyrimidine], the IC50 at PDE1 and at PDE11 (PDE11A) was greater than 1000 nM in each case.

For orientation: IC50 means the concentration that inhibits the measured activity by half.
